Measurements published in the SangsterLogP compilation.

assay: method code SF-HPLC, from PMID: 2608704; details: pH 1.0

logD	SMILES
1.6	O=C(O)CCSC1=NS(=O)(=O)c2ccc(Cl)cc2N1
0.18	O=C(O)CSC1=NS(=O)(=O)c2ccccc2N1
1.62	O=C(O)CSC1=NS(=O)(=O)c2ccc(C(F)(F)F)cc2N1
1.96	O=C(O)CCSC1=NS(=O)(=O)c2ccc(C(F)(F)F)cc2N1
0.37	COc1ccc2c(c1)NC(SCC(=O)O)=NS2(=O)=O
1.16	O=C(O)CSC1=NS(=O)(=O)c2cc(Br)cc(Br)c2N1
0.96	COc1ccc2c(c1)NC(SCCC(=O)O)=NS2(=O)=O
1.51	O=C(O)CCCC1=NS(=O)(=O)c2cc(Br)cc(Br)c2N1
1.5	O=C(O)CCC1=NS(=O)(=O)c2cc(Cl)c(Cl)cc2N1
1.09	O=C(O)CSC1=NS(=O)(=O)c2cc(Cl)cc(Cl)c2N1
0.82	O=C(O)CSC1=NS(=O)(=O)c2ccc(Cl)cc2N1
1.43	O=C(O)CCSC1=NS(=O)(=O)c2cc(Cl)ccc2N1
2.04	O=C(O)CCSC1=NS(=O)(=O)c2cc(Br)cc(Br)c2N1
1.04	O=C(O)CCC1=NS(=O)(=O)c2cc(Cl)cc(Cl)c2N1
1.81	O=C(O)CCSC1=NS(=O)(=O)c2cc(Cl)c(Cl)cc2N1
0.7	Cc1ccc2c(c1)NC(SCC(=O)O)=NS2(=O)=O
1.22	O=C(O)CCCC1=NS(=O)(=O)c2cc(Cl)cc(Cl)c2N1
1.77	O=C(O)CCSC1=NS(=O)(=O)c2cc(Br)ccc2N1
0.92	O=C(O)CSC1=NS(=O)(=O)c2cc(Br)ccc2N1
0.66	O=C(O)CCSC1=NS(=O)(=O)c2ccccc2N1
1.1	O=C(O)CSC1=NS(=O)(=O)c2cc(Cl)c(Cl)cc2N1
1.16	Cc1ccc2c(c1)NC(SCCC(=O)O)=NS2(=O)=O
0.72	O=C(O)CSC1=NS(=O)(=O)c2cc(Cl)ccc2N1
1.35	O=C(O)CCC1=NS(=O)(=O)c2cc(Br)cc(Br)c2N1
